Where a name gives a salt, the structure may show the parent alone.

In one experiment the target is T1, DBH (Homo sapiens, UniProt P09172).
T1 sequence (P09172 1-617): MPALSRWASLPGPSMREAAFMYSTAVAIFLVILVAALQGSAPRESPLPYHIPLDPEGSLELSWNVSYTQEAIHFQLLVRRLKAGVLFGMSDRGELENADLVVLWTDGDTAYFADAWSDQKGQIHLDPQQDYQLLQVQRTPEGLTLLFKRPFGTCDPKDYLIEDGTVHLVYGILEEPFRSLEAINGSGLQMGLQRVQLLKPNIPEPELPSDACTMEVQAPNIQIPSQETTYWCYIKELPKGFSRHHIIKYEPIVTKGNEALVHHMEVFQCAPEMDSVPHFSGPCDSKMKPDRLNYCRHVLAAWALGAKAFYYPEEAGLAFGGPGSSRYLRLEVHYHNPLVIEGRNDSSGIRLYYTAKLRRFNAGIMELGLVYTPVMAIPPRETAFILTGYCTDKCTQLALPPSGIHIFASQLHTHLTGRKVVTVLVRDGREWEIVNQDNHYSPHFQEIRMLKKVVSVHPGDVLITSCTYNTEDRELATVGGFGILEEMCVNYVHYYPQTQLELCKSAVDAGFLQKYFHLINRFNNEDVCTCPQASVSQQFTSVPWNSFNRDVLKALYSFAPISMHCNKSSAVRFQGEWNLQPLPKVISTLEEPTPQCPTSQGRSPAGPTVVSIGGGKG
The settings on record: cited from earlier work; for DBH inhibition (in words): literature reports; for mode of DBH inhibition: phenethylalamine analogues.

The test system of experiment [1] is spontaneously hypertensive rats. Put plainly: mean arterial blood pressure in spontaneously hypertensive rats. Type of experiment: in vivo, rat. The settings on record: 50 mg/kg intraperitoneally. The protocol: Further, spontaneously hypertensive rats were treated with a suspension or solution of N-(2-aminoethyl)-1-(3,5-difluorobenzyl)-2-mercaptoimidazole-5-carboxamid formate at a dose of 50 mg/kg intraperitoneally, and mean arterial blood pressure was monitored for 260 minutes using indwelling cannulae in the tail arteries.

As for `O=C(O)c1ccc(CCC(Br)CBr)cn1` (stereo not drawn) [5-(3,4-dibromobutyl)picolinic acid], the “DBH inhibition (in words)” value at DBH is given as “DBH inhibitors”.
As for `O=C(O)c1ccc(CCCCCl)cn1` [5-(4-chlorobutyl) picolinic acid], on DBH, the “DBH inhibition (in words)” value is “inhibit DBH”.
As for `CN(C)C(=S)SCc1ccc(C(=O)O)nc1` [5-(dimethyldithiocarbamoylmethyl)picolinic acid], the “DBH inhibition (in words)” value on DBH is listed as “DBH inhibitors”.
`NOCc1ccccc1` [Benzyloxyamine, benzyloxyamine]: the “mode of DBH inhibition” value at DBH is given as “apparently act as competitive inhibitors”.
On to `CCCCc1ccc(C(N)=O)nc1` [Bupicomide, 5-(n-butyl)picolinamine], for which the “DBH inhibition (in words)” value on DBH is on record as “DBH inhibitor”.
With `NCCNC(=O)c1cnc(S)n1Cc1cc(F)cc(F)c1` [N-(2-Aminoethyl)-1-(3,5-difluorobenzyl)-2-mercaptoimidazole-5-carboxamide,formate], in experiment [1] (260 minutes), the “blood pressure when monitoring was terminated” value is “blood pressure remained decreased when monitoring was terminated”. For the same compound, in experiment [1] (tail artery cannulae, monitored for 260 minutes), the “mean arterial blood pressure reduction compared to vehicle-treated controls” value was “significant blood pressure reductions”. Further, the “time following treatment to significant blood pressure reductions” value in experiment [1] (vs vehicle-treated controls) was not above 30 min.
Take `NNCc1ccccc1` [benzylhydrazine]: at DBH, the “mode of DBH inhibition” value is “apparently act as competitive inhibitors”.

(Values after patent US4837353A, “Dopamine-β-hydroxylase inhibitors” (SmithKline Beckman Corporation, priority 1988, dated 1989).)
